Measured values reported in US4542153A, “Methods for changing calcium metabolism within the cells of a mammal” (The Ohio State University Research Foundation, priority 1983, dated 1985).
“Also recorded” adds a separate entry of the source.

What was measured:
[1] = test system: chloroform anoxia arrhythmia in mice; assay: Chloroform Anoxia Assay (chloroform-induced ventricular fibrillation); assay type: in vivo, Female Swiss albino mice
Procedure: The same four compounds were tested for their ability to protect mice from chloroform anoxia by the classical chloroform inhalation procedure described in Lawson J. W.: Antiarrhythmic activity of some isoquinoline derivatives determined by a rapid screening procedure in the mouse, J. Pharmacol. Exp. Ther. 160: 22-31, (1968). In this method, chloroform inhalation leading to respiratory arrest produces ventricular fibrillation. Female Swiss albino mice procured from Laboratory Supply Company, Indianapolis, Indiana, weighing 16-22 g, were pretreated intraperitoneally with the compound under test dissolved in a 5% dextrose solution 10 minutes before exposure to chloroform in a closed container containing chloroform-saturated cotton. The mice were removed from the chloroform atmosphere immediately after respiratory arrest and the electrocardiograph lead II monitored. The ED 50 and 95% confidence limits calculated for the anti-arrhythmic agents by the standard method of Litchfield and Wilcoxon.

[2] = test system: isolated left atria; assay: Effects on isolated guinea pig atria: electrically driven left atria; assay type: cell-based
Source text: The effects of pr-MDI, bu-MDI and Q-bu-MDI on the mechanical and electrical behavior of isolated guinea pig atria were investigated by the method of H. Nawrath, J. Pharmacol. Exp. Ther., 16, 176-182 (1980). The compounds were investigated over the concentration range of 10^-8 to 3×10^-4 M.
English short-haired guinea pigs, supplied by Carr Animal Supply, of Powell, Ohio, weighing 300-600 g. were killed by a blow on the head and both atria of the animal were quickly dissected out and suspended in a water-jacketed organ bath containing Krebs-Henseleit solution through which a 95% oxygen/5% carbon dioxide mixture was bubbled at 32° C. The solution contained 6.92 g/l of sodium chloride, 0.35 g/l of potassium chloride, 0.29 g/l of magnesium […] heptahydrate, 0.3 g/l of calcium chloride dihydrate, 0.16 g/l of potassium dihydrogen phosphate, 2.1 g/l of sodium bicarbonate and 2.1 g/l of dextrose. The contractile force generated by the isolated artria was recorded isometrically under a 500 mg. preload using a Narco Biosystems force transducer connected to a physiograph DMP-4B recorder, both the transducer and the recorder being obtained from E & M Instrument Co. of Houston, Texas.
The isolated left atria were electrically driven by square wave impulses of 3 milliseconds duration at a frequency of 3 Hz. and a voltage of twice the threshold voltage, delivered by a Grass S9 stimulator obtained from Grass Instrument Co., of Quincy, Massachusetts. Two platinum electrodes were used for the stimulation, the anode being in direct contact with the atrial tissue while the cathode had the form of a ring suspended 2.5 centimeters above the anode. Before redetermination of the threshold voltage and generation of a predrug (control) frequency-force profile over the range of 1-5 Hz., an equilibriation time of one hour was allowed. The system was then re-equilibriated at 3 Hz. and twice the threshold voltage as before, then one cumulative dose-response curve of contractile force for one test compound was obtained, followed immediately by redetermination of the threshold voltage and the generation of a post-drug frequency-force profile.
A paired Student's t-test was used to compare predrug and postdrug threshold voltages for each left atrial preparations as well as to compare developed tension at each frequency in the profile of each left atrial preparation. P values of less than 0.05 were considered statistically significant.

[3] = test system: mice; assay: Toxicity Tests (intraperitoneal LD50); assay type: in vivo; conditions: i.p., table: mean values and 95% confidence limits
[4] = test system: thoracic aorta strips contracted with norepinephrine; assay: Vasodilator activity: norepinephrine-contracted aortic strips; assay type: cell-based, male Sprague-Dawley rats
Source text: Pr-MDI, bu-MDI, Q-bu-MDI and the compounds of Formulae IIIA, IIIB and IVA having the two R1 groups together forming a methylene group, each R3 a methyl group and R2 an n-propyl group or n-butyl group (the compounds of Formula III are hereinafter abbreviated as sat-pr-MDI and sat-bu-MDI respectively, reference being made where necessary to the cis isomer of Formula III A or the trans isomer of Formula III B while the compounds of Formula IV are similarly referred to as cis sat-Q-pr-MDI and cis sat-Q-bu-MDI) were tested for vasodilator activity by the method of R. F. Furchgott and S. Bhadrakom, J. P. Pharmacol. Ex. Ther., 108, 129-143 (1953).
The vasodilator activity tests were conducted on male Sprague-Dawley rats, obtained from Harlan Industries, Inc., Cumberland, Indiana. The rats, weight 250-300 g., were sacrified by cervical dislocation and a 2.5 cm. segment of the thoracic aorta was removed and rinshed in physiological buffer. Each aortic segment was cleaned of connective tissue and cut spirally two yield to strips, each 3 by 15 mm. Each strip was mounted isometrically under a tension of 1 g in a 10 ml. tissue bath thermostatically maintained at 37° C. and containing a normal physiological solution aerated with a 95% oxygen/5% carbon dioxide mixture. Forces generated by the strip were monitored using a Grass FT03 isometric transducer coupled to a Grass module 7D polygraph recorder, both the transducer and the recorder being obtained from Grass Instrument Co., of Quincy, Mass.
After the aortic tissue had been allowed to equilibriate for 1-1.5 hours in the normal physiologic solution, tissue contraction was induced by introducing either 10^-7 M norepinephrine or 40mM potassium chloride buffer to the tissue bath.
To avoid interference by loss of tension due to time dependent tissue fatigue, separate preliminary experiments were performed to determine the degree of tissue relaxation due to such fatigue and the value of the control tension generated by norepinephrine or potassium chloride prior to the addition of the test compounds was adjusted whenever the duration of the experiment was such that fatigue could be expected to cause more than a 6% loss of tension. […] All concentrations mentioned hereinafter represent the final concentration of the test compound after dilution in the tissue bath.
The figures of concentration against percent response data obtained from each aortic tissue were transformed to its appropriate probit value and IC50 values were then estimated using linear regression analysis. The normal physiological solution contained 6.9 g/l of sodium chloride, 0.35 g/l of potassium chloride, 0.11 g/l of magnesium chloride hexahydrate, 0.138 g/l of sodium dihydrogen phosphate, 2.1 g/l of sodium bicarbonate, 0.01 g/l of EDTA, 0.368 g/l of calcium chloride dihydrate and 2.0 g/l of dextrose. The high potassium buffers were obtained by substituting potassium chloride for sodium chloride on an equimolar basis to maintain tonicity.

CCCCC1=Cc2cc3c(cc2C1[N+](C)(C)C)OCO3.[I-] (stereo not drawn) [Q-bu-MDI, 2-Butyl-5,6-methylenedioxyindene-1-trimethylammonium iodide]
Therapeutic Index (LD50/ED50) ([1]; ED50 from chloroform anoxia, LD50 i.p.): 6.2 | ED50 ([1]; i.p., 10 min before chloroform, table: mean values and 95% confidence limits, n = 40): 10.5 mg/kg | ED50 compared with quinidine (statistical test) ([1]; i.p., p<<0.05): significantly smaller than that of quinidine | Antiarrhythmic Potency ([1]; quinidine = 1.00, chloroform anoxia): 6.38 | effect on frequency-force profile/relation of the stimulated left atrium ([2]; 3×10^-4 M): no significant effect | effect on the contractile force of left atrium at the highest concentration ([2]; 3×10^-4 M): partially reversed | effect on threshold voltage required to drive the atria ([2]; 3×10^-4 M): no significant effect upon the threshold voltage | dose-dependent decrease in the contractile force of the electrically stimulated left atrium ([2]; 10^-4 M, 100 µM): ≤ 20% | effect on contractile force of the electrically stimulated left atrium ([2]; 10^-8 to 3×10^-4 M): very modest; also recorded: much less than the other two compounds | overall effect on mechanical and electrical behavior of atria ([2]; 10^-8 to 3×10^-4 M): much smaller than that of bu-MDI or pr-MDI | persistent effects on frequency-force relation and threshold voltage ([2]; maximum concentration 3×10^-4 M): did not produce any persistent effects | LD50 [3]: 65 mg/kg | relaxation of the aortic tissue ([4]; norepinephrine- or KCl-treated tissue): relaxed the aortic tissue | comparative vasodilator activity, norepinephrine-treated tissue ([4]; norepinephrine-treated aortic tissue): less active in vitro than their tertiary analogs | IC50 ([4]; rat aorta contracted with 10^-7 M norepinephrine, read-out: IC50 (mean and range of SEM) Norepinephrine): 128 µM
